Results taken from patent US5486516A, “Furopyrimidine derivatives” (DowElanco, priority 1993, dated 1996).

How the values were obtained:
[1] = system: Pyricularia oryzae (rice blast); experiment: whole plant or invertebrate; assay type: in vivo; conditions: foliar, read-out: RICE BLAST control rating
[2] = system: Southern corn rootworm (Diabrotica undecimpuctata howardi Barber); experiment: Mite/insect screen, corn rootworm; assay type: in vivo; conditions: Diabrotica, soil, read-out: CRW results (percent mortality); for mortality at 12 ppm: CRW rate 12.00 ppm; for mortality at 24 ppm: CRW rate 24.00 ppm
How it was run: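 Compound in acetone/alcohol with emulsifiers, diluted with water; 1 mL applied to 15 g dry sandy soil holding a presoaked corn seed. After 6–12 h drying, five 2-3 instar larvae added, held at 23° C; percent mortality and phytotoxicity scored after standard exposure periods.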

[3] = system: southern armyworm (Spodopetra eridania Cramer); experiment: Mite/insect screen, Southern armyworm; assay type: in vivo; conditions: Spodoptera eridania, sprayed leaves, read-out: SAW results (percent mortality); for mortality at 200 ppm: rate 200 ppm; for mortality at 400 ppm: rate 400 ppm
How it was run: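 Compounds in acetone/alcohol with Toximul emulsifiers, diluted in water, sprayed to runoff on squash leaves at 10 psi and dried 1 h. Excised treated leaves fed to southern armyworm larvae in Petri dishes; percent mortality scored after standard exposure.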

[4] = system: Twospotted spider mites (Tetranychus urticae Koch); experiment: Mite/insect screen, twospotted spider mites; assay type: in vivo; conditions: Tetranychus urticae, sprayed leaves, read-out: SM results (percent mortality); for mortality at 200 ppm: rate 200 ppm; for mortality at 400 ppm: rate 400 ppm
How it was run: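 Squash cotyledons infested with mites were sprayed to runoff at 10 psi with compound in acetone/alcohol plus emulsifiers, diluted in water to the stated concentrations. Percent mortality and phytotoxicity were scored after standard exposure periods.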

[5] = system: melon aphids (Aphis gossvpii Glover); experiment: Mite/insect screen, melon aphids; assay type: in vivo; conditions: Aphis, sprayed leaves, read-out: MA results (percent mortality); for mortality at 200 ppm: rate 200 ppm; for mortality at 400 ppm: rate 400 ppm
How it was run: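 Aphids established on squash cotyledons were sprayed to runoff with compound in acetone/alcohol with sulfonate/nonionic emulsifiers, diluted in water to test concentrations. Leaves dried 1 h. Percent mortality scored after standard exposure periods.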

[6] = system: Puccinia recondita tritici (leaf rust); experiment: Plant pathology screen (Test 1), leaf rust on wheat; conditions: in Triticum aestivum, foliar, read-out: LEAF RUST control rating
[7] = system: Pseudoperonospora cubensis (downy mildew); experiment: Plant pathology screen (Test 1), downy mildew on squash; conditions: foliar, read-out: DOWN MDEW control rating
Description: The test compounds were formulated for application by dissolving 50 mg of the compound into 1.25 ml of solvent. The solvent was prepared by mixing 50 ml of "Tween 20" (polyoxyethylene (20) sorbitan monolaurate emulsifier) with 475 ml of acetone and 475 ml of ethanol. The solvent/compound solution was diluted to 125 ml with deionized water. The resulting formulation contains 400 ppm test chemical. Lower concentrations were obtained by serial dilution with the solvent-surfactant mixture.
The formulated test compounds were applied by foliar spray. The following plant pathogens and their corresponding plants were employed.
The formulated technical compounds were sprayed on all foliar surfaces of the host plants (or cut berry) to past run-off. Single pots of each host plant were placed on raised, revolving pedestals in a fume hood. Test solutions were sprayed on all foliar surfaces. All treatments were allowed to dry and the plants were inoculated with the appropriate pathogens within 2-4 hours.
The effectiveness of test compounds in controlling disease was rated using the following scale.

[8] = system: Erysiphe graminis tritici (powdery mildew); experiment: Plant pathology screen (Test 1), powdery mildew on wheat; conditions: Blumeria graminis, in Triticum aestivum, foliar, read-out: POWD MDEW control rating
[9] = system: Botrytis cinerea (gray mold); experiment: Plant pathology screen (Test 1), gray mold on grape berries; conditions: read-out: GRAY MOLD control rating

SMILES | pest or weed control at 400 µg/mL [1] [%] | mortality at 12 ppm [2] [%] | mortality at 24 ppm [2] [%] | mortality at 200 ppm [3] [%] | mortality at 400 ppm [3] [%] | mortality at 200 ppm [4] [%] | mortality at 400 ppm [4] [%] | mortality at 200 ppm [5] [%] | mortality at 400 ppm [5] [%] | pest or weed control at 400 µg/mL [6] [%] | pest or weed control at 400 µg/mL [7] [%] | pest or weed control at 400 µg/mL [8] [%] | pest or weed control at 400 µg/mL [9] [%]
Cc1cc2c(NCCc3ccc4ccccc4c3)ncnc2o1 [Example 31, 6-methyl-N-[2-(2-naphthalenyl)ethyl]furo[2,3-d]pyrimidine-4-amine] | 20 to 89 | 0 | 0 | 100 | 80 | 20 | 100 | 90 | 0 | 90 to 100 | 90 to 100 | 20 to 89 | 0 to 19
Cc1cc2c(OCCC34CC5CC(CC(C5)C3)C4)ncnc2o1 [Example 38, 6-methyl-4-[2-(1-adamantyl)ethoxy]furo[2,3-d]pyrimidine] | 0 to 19 | 0 | 0 | 0 | 0 | 0 | 0 | 0 | 0 | 0 to 19 | 0 to 19 | 0 to 19 | 0 to 19
Cc1cc2c(OCCc3ccc(OCc4ccccc4)cc3)ncnc2o1 [Example 39, 6-methyl-4-[2-[4-(phenylmethoxy)phenyl]ethoxy]furo[2,3-d]pyrimidine] | 0 to 19 | 0 | 0 | 0 | 0 | 0 | 0 | 0 | 10 | 90 to 100 | 0 to 19 | 0 to 19 | 0 to 19
COc1ccc(CCOc2ncnc3oc(C)cc23)cc1 [Example 40, 6-methyl-4-[2-(4-methoxyphenyl)ethoxy]furo[2,3-d]pyrimidine] | 0 to 19 | 0 | 0 | 0 | 0 | 0 | 20 | 0 | 80 | 90 to 100 | 90 to 100 | 20 to 89 | 0 to 19
Cc1oc2ncnc(OCCc3ccc(Oc4ccc(C(F)(F)F)cc4)cc3)c2c1C [Example 41, 5,6-dimethyl-4-[2-[4-[4-(trifluoromethyl)phenoxy]phenyl]ethoxy]furo[2,3-d]pyrimidine] | 20 to 89 | 0 | 60 | 0 | 0 | 0 | 100 | 0 | 100 | 90 to 100 | 90 to 100 | 90 to 100 | 0 to 19
Cc1cc2c(OCCc3ccc(C(F)(F)F)cc3)ncnc2o1 [Example 42, 6-methyl-4-[2-[4-(trifluoromethyl)phenyl]ethoxy]furo[2,3-d]pyrimidine] | 20 to 89 | 0 | 0 | 0 | 0 | 0 | 100 | 100 | 100 | 90 to 100 | 90 to 100 | 20 to 89 | 0 to 19
Cc1cc2c(OCCc3ccc(OC(C)(C)C)cc3)ncnc2o1 [Example 43, 6-methyl-4-[2-[4-(t-butoxy)phenyl]ethoxy]furo[2,3-d]pyrimidine] | 20 to 89 | 0 | 0 | 0 | 0 | 90 | 80 | 90 | 80 | 90 to 100 | 90 to 100 | 90 to 100 | 0 to 19
CCCCOc1ccc(CCOc2ncnc3oc(C)cc23)cc1 [Example 44, 4-[4-(4-butoxyphenyl)ethoxy]-6-methylfuro[2,3-d]pyrimidine] | 0 to 19 | – | 0 | – | 0 | – | 0 | – | 0 | 90 to 100 | 20 to 89 | 0 to 19 | 0 to 19
CCCCOc1ccc(CCOc2ncnc3oc(C)c(C)c23)cc1 [Example 45, 5,6-dimethyl-4-[2-[4-(n-butoxy)phenyl]ethoxy]furo[2,3-d]pyrimidine] | 0 to 19 | 0 | 0 | 0 | 0 | 90 | 100 | 90 | 90 | 90 to 100 | 20 to 89 | 20 to 89 | 0 to 19
Cc1cc2c(OCCc3ccc(C(C)(C)C)cc3)ncnc2o1 [Example 46, 4-[2-[4-(1,1-dimethylethyl)phenyl]ethoxy]-6-methylfuro[2,3-d]pyrimidine] | 0 to 19 | 0 | 0 | 0 | 0 | 80 | 80 | 90 | 60 | 0 to 19 | 0 to 19 | 0 to 19 | 0 to 19
Cc1oc2ncnc(NCCc3ccc(OC(F)(F)C(F)F)cc3)c2c1C [Example 47, N-[2-[4-(1,1,2,2-tetrafluoroethoxy)phenyl]ethyl]-5,6-dimethylfuro[2,3-d]pyrimidin-4-amine] | 90 to 100 | 100 | 80 | 100 | 0 | 90 | 100 | 100 | 100 | 90 to 100 | 90 to 100 | 20 to 89 | 0 to 19
Cc1ccc(CCNc2ncnc3occ(C)c23)cc1 [Example 48, 5-methyl-N-[2-(4-methylphenyl)ethyl]furo[2,3-d]pyrimidin-4-amine] | 90 to 100 | 60 | 100 | 0 | 0 | 0 | 0 | 0 | 80 | 90 to 100 | 90 to 100 | 90 to 100 | 0 to 19
